# Key:
# [1] = Determination of equilibrium solubility (HPLC); assay type: physicochemical; settings: 48 h, pH 7.4
# Procedure: An excess amount of ABZ-BA and ABZ were equilibrated in sodium phosphate buffer, pH 7.4, at 37°C for 48 h. The supernatant was separated from excess solid in solution by ultracentrifugation at 40000 rpm. Subsequently, the supernatant was diluted, and the solution concentration was determined using high-performance liquid chromatography (HPLC) (Shimadzu LC- 20AT, Kyoto, Japan). The chromatographic separation was performed with Diamonsil C18 (4.6×150 mm, 5 μm, Waters, Massachusetts, USA). ABZ-BA and ABZ were detected by ultraviolet (UV) absorbance detection at a wavelength of 240 nm. The mobile phase was methanol /water (70/30 v/v) and the flow rate was 1 mL/min. The injection volume was 20 μL.
# protoscolex (PSCs) [2] = test: Alkaline phosphatase in supernatant of PSC culture medium; assay type: cell-based, E. multilocularis; settings: 5 days after treatment, same concentration as ABZ / ABZ-SO
# protoscolex (PSCs) [3] = test: Caspase 3 in supernatant of PSC culture medium; assay type: cell-based, E. multilocularis; settings: 5 days after treatment
# [4] = test system: secondary hepatic alveolar echinococcosis (E. multilocularis); test: In vivo therapeutic efficacy in an in-situ AE animal model (lesion volume); settings: AE model rats
# Procedure: Six-week-old […] weighing 200-250g were purchased from a market (Weitong Lihua Laboratory Animal Technology Co., Ltd, Beijing, China). The rats were injected with protoscolex (PSC) suspension (1000–2000) PSCs/mL×0.1 mL/each using the open-abdominal direct liver puncture method. The modeling quality was confirmed by Mindray’s Resona7 color Doppler ultrasound system. The lesion volume was calculated by the length (X) and width (Y) of its ultrasound transverse section and the width (Z) of its longitudinal section, X·Y·Z. Rats with relatively uniform lesion volumes were selected as model animals for further experiments (Fig 1). All animal-related experiments were approved by the Animal Care and Utilization Committee (IACUC) of Qinghai University. The animals were housed in a room with controlled temperature (25 ± 2°C) with light-cycled (12 h light/dark cycle). Food and water were provided ad libitum.
# At the 16th week after establishing an experimental secondary AE in rats, we divided the model rats into three groups. The first is the control group, with six infected rats were received with CMC-Na of 0.9% saline. In the second group, rats were received with 0.2 mL of Albenda suspension. In the third group, rats were received with 0.2 mL of ABZ-BA suspension. The three groups were administered by gavage with the dosage of 25 mg/kg/d, which was calculated according to the equivalent dose convert ratio between humans and animals based on the surface body area of humans. After a 30-day, once-daily oral administration, the liver tissue lesions were obtained and weighed to evaluate the cyst inhibition rate after one month of administration.
# Hep-G2 cell line = test: Cytotoxicity in Hep-G2 cell line; assay type: cell-based, human; settings: ABZ-BA with different carbon chain lengths (C1, C4 linker), data not shown
# Source text: Since this part of data will be published in other manuscripts, it is not shown in this manuscript.
# [5] = Stability in rat plasma (UHPLC-MS method validation, S4 Table); assay type: in vitro ADME
# Procedure: A Dionex Ultimate 3000 RSLC system (Thermofisher) combined with an Accucore aQ C18 column (150 mm×2.1 mm, 2.6 μm, Thermo fisher) was used in the sample separation process. The separation speed was set at […] for all gradients. 1 μL of injection volume and a constant temperature of (25 ± 1°C were set for the column. The eluents were A, water with 0.1% formic acid (v/v) and B, methanol; the gradient program was as follows: 0–6 min, 8–40% B; 6–8 min, 40–100% B; 8–10 min, 100% B; 10–11 min, 100–8% B; 11–13 min, 8% B.
# Heated electro-spray ionization (HE-SI) was paired with a Q-Orbitrap MS in the MS analysis. The flow rate of auxiliary, sheath and sweep gas was set at 35, 10, and 1 (arbitrary unit), respectively. A full MS-ddMS^2 mode was used to perform the analysis. The damping gas in the C-trap and nitrogen was used to stabilize the spraying. Temperatures of 350°C and 320°C were set and kept for the auxiliary gas heater and capillary. Under negative mode, 3.0 kV was adopted for the spray voltage, 60 V was used for the S-lens RF level, 50 ms was used for the maximum injection time, and 3.0 ^e6 was set as the automatic gain control target. Full MS-ddMS^2 scan ranged from 150.0000 to 800.0000 m/z. Precise molecular weight […] was used for qualitative analysis, the corresponding peak area was used for quantitative analysis, and MS^2 fragments were used for further qualitative analysis.
# Plasma samples were thawed at room temperature, and 100 μL was added to an equal volume of mass spectrometry grade methanol, vortexed for 1 min, and centrifuged again at 13000 rpm for 5 min. 100 μL of the supernatant were added to 100 μL of 200 ng/mL mebendazole IS solution, vortexed for 1 min, and centrifuged again at 13000 rpm for 5 min. The resulting sample was injected by UHPLC-HR-ESI-MS with an injection volume of 1 μL. The pharmacokinetic study of SD rats was performed according to the standards recommended by the "Guidelines for the Care and Use of Laboratory Animals" (Animal Laboratory Resources Institute, 1995) and was approved by the Institutional Animal Care and Use Committee of Qinghai University.
# Supplementary file pntd.0011031.s004.xlsx: S4 Table The stability for the determination of total alkaloid in rat plasma. (XLSX) Click here for additional data file.
# [6] = background statement; cited from earlier work
# [7] = after 1 month of oral administration
# [8] = nominal 1.58 (ABZ-BA) / 1.57 (ABZ) ng/mL
# [9] = nominal 25.25 (ABZ-BA) / 25.18 (ABZ) ng/mL
# [10] = nominal 101 (ABZ-BA) / 100.78 (ABZ) ng/mL
compound,measurement,setting,value
CCCSc1ccc2[nH]c(NC(=O)NCCCCOC(=O)CCC(C)C3CCC4C5C(O)CC6CC(O)CCC6(C)C5CC(O)C34C)nc2c1 (stereo not shown) [ABZ-BA],equilibrium solubility of ABZ-BA relative to ABZ in vitro,[1],4 fold
same,solubility of ABZ-BA relative to ABZ,[1],about 12 times
same,ALP in supernatant of PSC culture medium vs positive control group,protoscolex (PSCs) [2],no significant difference
same,content of caspase 3 in supernatant of PSC culture medium vs positive control group,protoscolex (PSCs) [3],significantly higher
same,"apoptotic effect on PSCs, dependence on concentration",protoscolex (PSCs) [3]; 13.45-53.8 μg/mL,concentration-dependent
same,lesion volume,"[4]; 25 mg/kg/d by gavage, after 4 weeks of administration, n = 6, ultrasound X·Y·Z",0.35±0.18 cm^3
same,effect of ABZ-BA group relative to Albenda,[4]; [7],2.7 fold
same,therapeutic effect,[4]; [7],significant therapeutic effect
same,cytotoxicity compared with ABZ,Hep-G2 cell line,the same cytotoxicity as ABZ
"CCCSc1ccc2nc(NC(=O)OC)[nH]c2c1 [ABZ, Albendazole]","Measured (mean ± SD), 4℃ for 24 h",[5]; [8],1.53 ± 0.08 ng/mL
same,"Measured (mean ± SD), Room temperature for 24 h",[5]; [8],1.56 ± 0.13 ng/mL
same,"Measured (mean ± SD), Three freeze",[5]; [8],1.59 ± 0.15 ng/mL
same,"Measured (mean ± SD), at -80℃ for 15 days",[5]; [8],1.56 ± 0.07 ng/mL
same,"Measured (mean ± SD), 4℃ for 24 h",[5]; [9],25.65 ± 0.53 ng/mL
same,"Measured (mean ± SD), Room temperature for 24 h",[5]; [9],24.87 ± 0.34 ng/mL
same,"Measured (mean ± SD), Three freeze",[5]; [9],25.56 ± 0.56 ng/mL
same,"Measured (mean ± SD), at -80℃ for 15 days",[5]; [9],25.34 ± 1.18 ng/mL
same,"Measured (mean ± SD), 4℃ for 24 h",[5]; [10],104.63 ± 2.81 ng/mL
same,"Measured (mean ± SD), Room temperature for 24 h",[5]; [10],98.90 ± 3.53 ng/mL
same,"Measured (mean ± SD), Three freeze",[5]; [10],106.20 ± 1.36 ng/mL
same,"Measured (mean ± SD), at -80℃ for 15 days",[5]; [10],108.56 ± 1.18 ng/mL
same,oral bioavailability,[6],< 5%

# — publication PMC9838834, “Improvement of Antialveolar echinococcosis efficacy of novel Albendazole-Bile acids Derivatives with Enhanced Oral Bioavailability” (PLOS Neglected Tropical Diseases, 2023)
